# Results from patent US11033545B2, “Negative allosteric modulators of MGLUR5 for use in the treatment of mature brain damages” (Sinntaxis AB, priority 2016, dated 2021).
# How the values were obtained:
# Format in all cases: in vivo
# male Sprague Dawley rats [1] = assay: Paw placement test after photothrombotic stroke in the rat; details: rat
# Procedure: Animals. All experiments were carried out with the approval of the Malmö-Lund animal review board and according to the ARRIVE guidelines. Animals were housed under reverse light conditions, with the testing performed during the dark period when the rats are active. The experiments were carried out on male Sprague Dawley rats (11 weeks of age, Charles River, Scanbur A/S Karlslunde, Denmark). The studies were subjected to randomization and carried out in a blinded fashion to the investigators who performed the surgeries and behavioral assessment.
# Administration of compound. The compound was injected as a bolus dose of 1 ml/kg into the lower quadrant of the abdomen.
# (§1) Experimental stroke. The animals were anesthetized by isoflurane (approximately 2% in 02 under spontaneous ventilation) and placed into stereotaxic frame. Temperature was monitored during surgery using a rectal temperature probe and animals were kept at 37.0-37.5±0.2° C. by means of a heating pad with feedback control. A sagittal skin incision was made and subcutaneous connective tissue was removed and the skull was dried. Thereafter, the photosensitizer dye Rose Bengal (0.5 mL at 10 mg/mL) was infused in the tail vein. Two minutes after injection, the skull was illuminated with cold light (Schott, KL 1500 LCD) on an area of 8 to 4.5 mm for 15 min (from +4 to −4 mm antero-posterior and from 0.5 to 5 mm on the left from bregma). Thereafter the tail and the scalp incisions were sutured and the rats transferred to their home cage. The functional deficit was assessed 2 h after the onset of the stroke using the limb placement test and only the animals having a score 0, for both fore- and hindlimb contralateral to the brain damaged hemisphere were used for the study.
# Test of neurological function. The paw placement test. The cortical damage inflicted by the phothrombosis, causes a deficit due to neuronal loss in the sensori-motor area and depression of functions in neuronal networks in the vicinity of the lesion. […] This test provides information on the tactile/proprioceptive response to limb stimulation. Animals were placed with all 4 paws on the table top, and the paws to be tested along the edge. The rat was moved over the edge so the paws to be tested loose contact with the table surface. The ability of the animals to place the limb back onto the table surface when the rat was moved towards the edge was evaluated. Importantly, the head was held at 45° angle, so that visual and whisker/snout stimulation was prevented. A prompt placement of the limb onto the table was scored as 1. Incomplete placing of the limb was scored as 0.5, and complete extension of the limb and paw was scored as 0. In order to obtain groups with a similar functional deficit prior to treatment of the animals with drugs or vehicle, selective sorting was performed on day 2 after experimental stroke, a time point of recovery when the infarct development had subsided.
# Administration of the compounds. The compounds were administrated orally (p.o.) by catheters placed in the stomach. The amount of solutions were 0.2 ml/rat and 0.1 ml/mice.
# Induction of stroke was as made as in Example 1 for rats and as in Example 2 in mice. Assessment of neurological function was performed as in Example 1 for rats and as in Example 2 for mice. The animals were perfused and immunostained as in Example 1, and the infarct size was assessed as in Example 1.
# Induction of stroke, assessment of neurological function, perfusion of animals, immunostaining and assessment of infarct size were made as in Example 1.
# male Sprague Dawley rats [2] = assay: Infarct size after photothrombotic stroke in the rat; details: 5 mg/kg i.p., FIG. 1B
# Procedure: as §1, with “Two minutes after injection, the skull was illuminated with cold light (Schott, KL 1500 LCD) on an area of 8 to 4.5 mm for 15 min (from +4 to −4 mm antero-posterior and from 0.5 to 5 mm on the left from bregma). Thereafter the tail and the scalp incisions were sutured and the rats transferred to their home cage.” left out, “study. […]” for “study.”
# Infarct measurements. […] Twelve slices 1 mm apart, were scanned, and the non-lesioned area of the infarcted hemisphere and the non-lesioned contralateral hemisphere were outlined and measured using the ImageJ software (National Institute of Health, USA). Infarct volume (mm^3) was determined by subtracting the area of the non-lesioned ipsilateral hemisphere from that of the intact contralateral hemisphere, and calculated by volumetric integration for each animal.
# male C57/BL6 mice = assay: Paw placement test after photothrombotic stroke in the mouse
# [3] = time course of recovery of function, treatment starting 2 days after stroke
structure (smiles),measurement,setting,value
"Cc1nc(C#Cc2cccnc2)cs1 [SIN007, 3-[(2methyl-1,3-thiazol-4-yl)ethynyl]pyridine]",paw placement score (recovery of paw placement function),"male Sprague Dawley rats [1]; 5 mg/kg i.p. daily starting 2 days after stroke, assessed at 14 days after stroke, vs vehicle, p<0.001, FIG. 1A",almost complete recovery of paw placement function
same,persistence of recovery of function after termination of the treatment,"male Sprague Dawley rats [1]; after 5 days treatment, FIG. 1D",at least 7 days
same,days of treatment for a maximal treatment effect,male Sprague Dawley rats [1]; [3],14 days
same,days of treatment required for a treatment effect,male Sprague Dawley rats [1]; [3],At least 4 days
same,infarct size compared to vehicle,male Sprague Dawley rats [2],no difference in infarct size
same,infarct size,male Sprague Dawley rats [2]; animals of FIG. 1A,19.5±4.6 mm^3
same,recovery of function,"male C57/BL6 mice; 1 mg/kg i.p. daily for 3 days, standard housing, FIG. 2F",moderately enhances recovery of function
same,"recovery of function, combined with enriched environment","male C57/BL6 mice; 1 mg/kg i.p. for 3 days plus housing in enriched environment, FIG. 2F",significantly improves recovery
same,functional recovery (paw placement),"male C57/BL6 mice; 5 mg/kg i.p. daily for 5 days starting 2 days after stroke, vs vehicle, p<0.01, FIG. 2A",strong recovery enhancing effect
same,paw placement score after 5 days of treatment,"male C57/BL6 mice; SIN007 5 mg/kg i.p. alone, vs vehicle, FIG. 2D",recovered paw function
